Values of other authors as cited in US20250099444A1, “Methods of Treating a Subject for Long-Haul COVID-19, and Compositions for Use in the Same” (IncellDx, Inc., priority 2022, published 2025).

Test system: R5-tropic HIV-1

## Cc1nnc(C(C)C)n1[C@@H]1C[C@H]2CC[C@@H](C1)N2CC[C@H](NC(=O)C1CCC(F)(F)CC1)c1ccccc1 [maraviroc, 4,4-difluoro-N-[(1S)-3-[(1S,5R)-3-(3-methyl-5-propan-2-yl-1,2,4-triazol-4-yl)-8-azabicyclo[3.2.1]octan-8-yl]-1-phenylpropyl]cyclohexane-1-carboxamide]
96 weeks of treatment at 300 mg B.I.D
  incidence of hepatoxicity (MOTIVATE study): low incidence of hepatoxicity
>5 year follow-up, HIV patients
  death and other health threats, long-term follow-up of MOTIVATE trials: limited instances of death and other health threats such as hepatic failure and myocardial infarctions
Individuals with R5-tropic HIV-1
  HIV viral loads (MOTIVATE 1 and MOTIVATE 2): lower levels of HIV viral loads
